Measurements published in patent US8920822B2, “Skin beautifier” (Megmilk Snow Brand Co., Ltd., priority 2004, dated 2014).

What was measured:
CD-1 (ICR)-nu/nu mice [1] = test: Moisture content of the tail skin of nude mice after 4 weeks of oral feeding (Corneometer); type: in vivo, mouse; conditions: for increase of the moisture content of the skin: end vs start of administration; for Increase Rate of Moisture: value at end of feeding with start = 100
Procedure: (§1) Effects of the skin beautifier according to the present invention were investigated by an animal test using nude mice.
(§2) A sphingomyelin raw material (Phospholac 500; manufactured by NZMP) containing 10% of sphingomyelins was dissolved in deionized water as shown in Table 1. The solution was heated to 50° C. and then mixed under stirring with an ultradisperser (ULTRA-TURRAX T-25; manufactured by IKA Japan) at 9500 rpm for 20 minutes to prepare Test Feeds 1 to 3.
(§3) Five-week old CD-1 (ICR)-nu/nu mice were divided into the following 4 test groups (10 mice in each group), namely, (Group A) a group receiving 10 g of physiological saline per kg of mouse body weight, (Group B) a group receiving 10 g of the Test Feed 1 per kg of mouse body weight, (Group C) a group receiving 10 g of the Test Feed 2 per kg of mouse body weight, and (Group D) a group receiving 10 g of the Test Feed 3 per kg of mouse body weight. Mice in all the groups were fed by orally administering the feed once daily by gavage feeding for 4 weeks. Moisture contents and transepidermal water losses in the tail skin of each mouse were measured at the start and the end of the feeding. Values at the end of the feeding (rates of increase) were calculated by assuming each of the values at the start of the feeding to be 100. The moisture contents of the skin and the transepidermal water losses were measured using Corneometer and Tewameter, respectively, which were manufactured by Courage+Khazaka.

CD-1 (ICR)-nu/nu mice [2] = test: Transepidermal water loss in the tail skin of nude mice after 4 weeks of oral feeding (Tewameter); type: in vivo, mouse; conditions: for Increase Rate of Transepidermal Water Loss: value at end of feeding with start = 100; for increase of the transepidermal water loss: after 4-week administration
Procedure: as §1, §2, §3

[3] = Group B, Test Feed 1, sphingomyelin 2 mg/kg orally once daily for 4 weeks
[4] = Group C, Test Feed 2, sphingomyelin 5 mg/kg orally once daily for 4 weeks
[5] = Group D, Test Feed 3, sphingomyelin 10 mg/kg orally once daily for 4 weeks
[6] = oral administration, nude mice, covers moisture content and TEWL

## sphingomyelin
CD-1 (ICR)-nu/nu mice [1]; Group B (printed Group 13), 2 mg/kg orally
  increase of the moisture content of the skin: about 1.5 times
CD-1 (ICR)-nu/nu mice [1]; [3]
  Increase Rate of Moisture: 155%
CD-1 (ICR)-nu/nu mice [1]; Group C, 5 mg/kg orally
  increase of the moisture content of the skin: about 2.5 times
CD-1 (ICR)-nu/nu mice [1]; [4]
  Increase Rate of Moisture: 245%
CD-1 (ICR)-nu/nu mice [1]; Group D, 10 mg/kg orally
  increase of the moisture content of the skin: about 2.5 times
CD-1 (ICR)-nu/nu mice [1]; [5]
  Increase Rate of Moisture: 253%
CD-1 (ICR)-nu/nu mice [1]; [6]
  dose at which the effects (skin moisture increased, transepidermal water loss decreased) were observed: ≥ 2 mg per kg of mouse body weight
  dose at which the effects (skin moisture increased, transepidermal water loss decreased) were significant: ≥ 5 mg per kg of mouse body weight
CD-1 (ICR)-nu/nu mice [2]; [3]
  Increase Rate of Transepidermal Water Loss: 152%
CD-1 (ICR)-nu/nu mice [2]; Group C, 5 mg/kg orally
  increase of the transepidermal water loss: about 1.4 times
CD-1 (ICR)-nu/nu mice [2]; [4]
  Increase Rate of Transepidermal Water Loss: 137%
CD-1 (ICR)-nu/nu mice [2]; Group D, 10 mg/kg orally
  increase of the transepidermal water loss: about 1.4 times
CD-1 (ICR)-nu/nu mice [2]; [5]
  Increase Rate of Transepidermal Water Loss: 140%
